Data reported in PMC7217150, “Synthesis, Modification, and Biological Evaluation of a Library of Novel Water‐Soluble Thiopyridone‐Based Organometallic Complexes and Their Unexpected (Biological) Behavior” (Chemistry (Weinheim an Der Bergstrasse, Germany), 2020).
Like-named read-outs stand apart in the source and are kept apart here.

Columns and labels:
[1] = pH 7.2
Protocol: Stock solutions containing the desired complex in DMSO (5 mM) were diluted with phosphate buffer (pH 7.2) to a final concentration of […] compound in 1 % DMSO/20 mM buffer and directly analyzed by four different isocratic UHPLC runs (Δ=5 %). The lipophilicity parameters logkw and lipophilicity indices φ0 were calculated according to literature.7, 37

A549 [2] = assay: MTT cytotoxicity assay, monolayer culture; type: cell-based, human; conditions: exposure time 96 h, means ± SDs
SW480 [3] = assay: MTT cytotoxicity assay, monolayer culture; type: cell-based, human
CH1/PA‐1 [4] = assay: MTT cytotoxicity assay, monolayer culture; type: cell-based, human; conditions: CH1/PA‐1, MTT assay, exposure time 96 h, means ± SDs
HCT‐116 = HCT‐116 multicellular spheroids, 96 h drug exposure
Protocol: (§1) A549, CH1/PA‐1 and SW480 cells were grown in MEM supplemented with 10 % fetal calf serum (FCS; from Biowest), 1 mM sodium pyruvate, 4 mM L‐glutamine and 1 % v/v nonessential amino acids (from 100×solution) and L‐glutamine. HCT‐116 cells were maintained in McCoy's 5a medium supplemented with 10 % FCS and L‐glutamine. Adherent monolayer cultures were grown in 75 cm^2 flasks. For spheroid culture, A549, CH1/PA‐1 and HCT‐116 cells were harvested from culture flasks by trypsinization, resuspended in their respective supplemented medium and seeded in ultra‐low attachment round‐bottom 96‐well plates (Corning Costar) at a density of 500 viable cells per well. Plates were incubated for 96 h to allow spheroid formation prior to use for the tests. All cultures were incubated in a humidified incubator at 37 °C with 5 % CO2.
(§2) Cytotoxicity in multicellular spheroids was determined by the fluorimetric resazurin assay. […] After incubation for 96 h, 20 μL of a 440 μM resazurin sodium salt solution in PBS were added to each well, and the plates were incubated for further 16 h. Fluorescence was measured with a Synergy HT reader (BioTek) with an excitation wavelength of 530 nm and emission wavelength of 590 nm. For both assays, at least three independent experiments (or two in case of poor activity) were performed, each with triplicates per concentration level, and the 50 % inhibitory concentrations (IC50) relative to untreated controls were interpolated from concentration‐effect curves.

A549 [5] = conditions: A549 multicellular spheroids, 96 h drug exposure
Protocol: as §1, §2

CH1/PA‐1 [6] = conditions: CH1/PA‐1 multicellular spheroids, 96 h drug exposure
Protocol: as §1, §2

SW480 [7] = assay: Cell cycle distribution, flow cytometry with propidium iodide; type: cell-based, human; conditions: for Cell cycle distribution G1, % / Cell cycle distribution G2/M, % / Cell cycle distribution S, %: 24 h, mean ± SD; for Relative change in cell cycle distribution G1, % / Relative change in cell cycle distribution G2/M, % / Relative change in cell cycle distribution S, %: difference to untreated control
Outline: (§3)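 CH1/PA-1 and SW480 cells were allowed to attach for 24 h, then exposed continuously to compounds for 24 h at 37 °C. Nuclei were stained overnight at 4 °C with propidium iodide (50 μg mL^−1) in Triton/citrate buffer. 5×10^3 cells were analysed by flow cytometry, with G1/S/G2/M fractions fitted by the Watson Pragmatic model.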

CH1/PA‐1 [8] = assay: as above; type: cell-based, human; conditions: for Cell cycle distribution G1, % / Cell cycle distribution G2/M, % / Cell cycle distribution S, %: 24 h, mean ± SD; for Relative change in cell cycle distribution G1, % / Relative change in cell cycle distribution G2/M, % / Relative change in cell cycle distribution S, %: difference to untreated control; for decrease in G1 phase: CH1/PA‐1 cells
Outline: as §3

[9] = system: human cancer cell lines CH1/PA‐1, SW480, A549; conditions: tested cancer cell lines
Protocol: Cytotoxicity of the compounds in monolayer cultures was determined by the colorimetric MTT assay (MTT=3‐(4,5‐dimethyl‐2‐thiazolyl)‐2,5‐diphenyl‐2H‐tetrazolium bromide). 1×10^3 CH1/PA‐1, 2×10^3 SW480 and 3×10^3 A549 cells were seeded in 100 μL supplemented MEM per well into 96‐well flat‐bottom microculture plates. […] After 96 h, the drug‐containing medium was replaced with 100 μL of RPMI 1640/MTT mixture [6 parts of RPMI 1640 medium (supplemented with 10 % heat‐inactivated fetal bovine serum and 4 mM L‐glutamine), 1 part of MTT solution in phosphate‐buffered saline (5 mg mL^−1)]. After incubation for 4 h, the mixture was replaced with 150 μL DMSO per well to dissolve the formazan product formed by viable cells. Optical densities at 550 nm (and at a reference wavelength of 690 nm) were measured with a microplate reader (ELx808, Bio‐Tek).

## Cc1c([O-])c(=S)ccn1Cc1ccccc1.Cc1ccc(C(C)C)cc1.[Cl-].[Ru+2] [Compound 3 c, Chlorido[1‐benzyl‐2‐methyl‐3‐(oxo‐κO)‐pyridine‐4(1H)‐thionato‐κS](η^6‐p‐cymene)ruthenium(II)]
SW480 cells
  intracellular accumulation relative to 3 a, in words: seven times as high
SW480 cells; ICP‐MS, 2 h exposure, 50 μM
  Cellular accumulation: 147±54 fg/cell
[1]
  φ0 (chromatographic lipophilicity index): 6.04
A549 [2]
  IC50: 1.3 ± 0.1 µM
SW480 [3]; SW480, MTT assay, exposure time 96 h, means ± SDs
  IC50: 3.1 ± 0.2 µM
SW480 [3]; SW480, as listed in Table 3
  IC50: 3.06 ± 0.2 µM
CH1/PA‐1 [4]
  IC50: 1.04 ± 0.03 µM
HCT‐116
  IC50: 211 ± 28 µM
A549 [5]
  IC50: 287 ± 3 µM
CH1/PA‐1 [6]
  IC50: 242 ± 11 µM
SW480 [7]; SW480, 2.5 µM
  Cell cycle distribution G1, %: 45 ± 3%
  Cell cycle distribution G2/M, %: 17 ± 4%
  Cell cycle distribution S, %: 38 ± 6%
  Relative change in cell cycle distribution G1, %: -3%
  Relative change in cell cycle distribution G2/M, %: -2%
  Relative change in cell cycle distribution S, %: 5%
SW480 [7]; SW480, 5 µM
  Cell cycle distribution G1, %: 44 ± 2%
  Cell cycle distribution G2/M, %: 20 ± 3%
  Cell cycle distribution S, %: 36 ± 0%
  Relative change in cell cycle distribution G1, %: -4%
  Relative change in cell cycle distribution G2/M, %: 1%
  Relative change in cell cycle distribution S, %: 3%
SW480 [7]; SW480, 10 µM
  Cell cycle distribution G1, %: 48 ± 7%
  Cell cycle distribution G2/M, %: 21 ± 4%
  Cell cycle distribution S, %: 32 ± 7%
  Relative change in cell cycle distribution G1, %: 0%
  Relative change in cell cycle distribution G2/M, %: 2%
  Relative change in cell cycle distribution S, %: -1%
SW480 [7]; SW480 cells, at applicable concentrations
  decrease in G1 phase: < 9%
CH1/PA‐1 [8]; CH1/PA-1, 2.5 µM
  Cell cycle distribution G1, %: 30 ± 1%
  Cell cycle distribution G2/M, %: 23 ± 6%
  Cell cycle distribution S, %: 47 ± 8%
  Relative change in cell cycle distribution G1, %: -10%
  Relative change in cell cycle distribution G2/M, %: -1%
  Relative change in cell cycle distribution S, %: 11%
CH1/PA‐1 [8]; CH1/PA-1, 5 µM
  Cell cycle distribution G1, %: 27 ± 3%
  Cell cycle distribution G2/M, %: 30 ± 3%
  Cell cycle distribution S, %: 43 ± 3%
  Relative change in cell cycle distribution G1, %: -13%
  Relative change in cell cycle distribution G2/M, %: 6%
  Relative change in cell cycle distribution S, %: 7%
CH1/PA‐1 [8]; CH1/PA-1, 10 µM
  Cell cycle distribution G1, %: 24 ± 6%
  Cell cycle distribution G2/M, %: 30 ± 7%
  Cell cycle distribution S, %: 47 ± 4%
  Relative change in cell cycle distribution G1, %: -16%
  Relative change in cell cycle distribution G2/M, %: 6%
  Relative change in cell cycle distribution S, %: 11%
CH1/PA‐1 [8]; 2.5 μM
  decrease in G1 phase: 10%
CH1/PA‐1 [8]; 10 μM
  decrease in G1 phase: about 16%
[9]
  IC50 values, in words: low micromolar range
